SMILES strings stand for the structures. Where a chain is given by its changes, count along the chain named.

Holding throughout (test): Nucleotide binding affinity by intrinsic fluorescence, mutant
Holding throughout (set-up): The coding region (residue Q20-L756) of Am2136 without signal peptide was based on UniProt; 6XHis (N); made in house; host or cells: E. coli BL21 (DE3)

One test has as its target T1, Am2136 Y327F+Y331F (Akkermansia muciniphila, UniProt B2UPR7, Y327F/Y331F).
T1 sequence (B2UPR7 20-756 Y327F/Y331F): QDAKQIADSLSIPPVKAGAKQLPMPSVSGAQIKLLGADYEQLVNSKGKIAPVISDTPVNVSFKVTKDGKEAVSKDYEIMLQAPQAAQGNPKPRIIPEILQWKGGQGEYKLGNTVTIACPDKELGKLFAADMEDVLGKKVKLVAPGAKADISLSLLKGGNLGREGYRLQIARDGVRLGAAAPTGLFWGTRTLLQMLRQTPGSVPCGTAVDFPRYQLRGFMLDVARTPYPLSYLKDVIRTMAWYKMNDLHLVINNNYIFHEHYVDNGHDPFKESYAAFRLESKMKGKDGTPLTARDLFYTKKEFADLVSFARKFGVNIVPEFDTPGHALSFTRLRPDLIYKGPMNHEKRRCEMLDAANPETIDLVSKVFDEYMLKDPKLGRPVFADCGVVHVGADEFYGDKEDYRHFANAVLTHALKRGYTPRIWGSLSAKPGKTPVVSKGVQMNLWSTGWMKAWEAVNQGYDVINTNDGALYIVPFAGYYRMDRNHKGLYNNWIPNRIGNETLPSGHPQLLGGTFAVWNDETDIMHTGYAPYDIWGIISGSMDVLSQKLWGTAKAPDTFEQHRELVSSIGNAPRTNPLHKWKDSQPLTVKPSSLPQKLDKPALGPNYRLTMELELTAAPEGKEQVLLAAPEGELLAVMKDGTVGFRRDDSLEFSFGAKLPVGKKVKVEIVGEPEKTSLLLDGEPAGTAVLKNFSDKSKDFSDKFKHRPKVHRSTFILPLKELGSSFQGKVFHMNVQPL
The method, then:
(§1) The nucleotide binding ability was determined on Fluorescence Spectrometer Duetta (HORIBA) by measuring the change of peak intensity. The fluorescence was excited at 286 nm and emitted at 336 nm. And the measurement was processed under 400 V voltage with 2.5 nm excitation slit and 5 nm emission slit. The 120 μL reaction mixture contains 0–550 μM nucleotide, 5 μM proteins, 25 mM Tris pH 8.0 and 150 mM NaCl. The sample was incubated at 4°C for 5 min before testing.

Another test concerns the target T2, Am2136 P595A+H597A (Akkermansia muciniphila, UniProt B2UPR7, H597A/P595A).
T2 sequence (B2UPR7 20-756 P595A/H597A): T1 sequence (B2UPR7 20-756 Y327F/Y331F) with F308Y, F312Y, P576A, H578A
The method, then: as §1

Another test deals with T3, Am2136 Y550A (Akkermansia muciniphila, UniProt B2UPR7, Y550A).
T3 sequence (B2UPR7 20-756 Y550A): T1 sequence (B2UPR7 20-756 Y327F/Y331F) with F308Y, F312Y, Y531A
The method, then: as §1

As for `Nc1nc2c(ncn2[C@@H]2O[C@H](COP(=O)(O)OP(=O)(O)O)[C@@H](O)[C@H]2O)c(=O)[nH]1` [GDP], the Kd (as a rule, the equilibrium constant for the complex coming apart) at Am2136 Y327F+Y331F came to 175 ± 13.7 µM; at Am2136 P595A+H597A, 140 ± 4.26 µM; on Am2136 Y550A it was 193 ± 7.36 µM.

(Values after publication PMC9673926, “Nucleotide binding as an allosteric regulatory mechanism for Akkermansia muciniphila β-N-acetylhexosaminidase Am2136” (Gut Microbes, 2022).)
